This passage reports IC50 results from US7595320B2, “Hydrazinocarbonyl-thieno[2,3-C]pyrazoles, process for preparing them, compositions containing them and use thereof” (Aventis Pharma S.A., priority 2005, dated 2009).

What all share (type): biochemical
In one experiment the target is T1, Aurora2 (Homo sapiens, UniProt O14965).
T1 construct: Aurora2: whole recombinant protein comprising an N-terminal histidine tail; His tag (N); made in house; host or cells: E. coli
T1 sequence (O14965 1-403): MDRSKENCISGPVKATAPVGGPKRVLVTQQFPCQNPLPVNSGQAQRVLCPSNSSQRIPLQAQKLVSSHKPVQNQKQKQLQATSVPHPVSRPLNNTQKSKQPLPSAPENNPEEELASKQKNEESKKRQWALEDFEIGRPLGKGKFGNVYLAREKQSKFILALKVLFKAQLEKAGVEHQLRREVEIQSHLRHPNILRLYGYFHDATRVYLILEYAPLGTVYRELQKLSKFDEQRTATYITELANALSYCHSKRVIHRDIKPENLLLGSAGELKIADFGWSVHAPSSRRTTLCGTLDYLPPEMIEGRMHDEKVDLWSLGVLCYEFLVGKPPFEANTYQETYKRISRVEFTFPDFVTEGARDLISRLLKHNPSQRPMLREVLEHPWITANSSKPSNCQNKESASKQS
Briefly: Aurora2 enzymatic test, NuMA phosphorylation with [33P]ATP, Flashplate. Conditions: whole recombinant protein, 1 μM ATP. As for the experimental part:
(§1) The inhibitory effect of compounds with respect to the kinases Aurora1 and Aurora2 is determined by means of an enzymatic test using radioactivity detection.
(§2) The kinase activity of Aurora1 and Aurora2 is evaluated via the phosphorylation of the substrate Numa-histidine in the presence of radiolabelled ATP ([^33P]ATP) using 96-well Flashplate plates in which the nickel chelate is bound to the surface of the microplate. The amount of ^33P phosphate incorporated into the NuMA substrate is proportional to the activity of the enzyme Aurora1 or Aurora2.
Aurora2: whole recombinant protein comprising an N-terminal histidine tail, was expressed in E. coli and purified to more than 82%.
(§3) NuMA (nuclear protein that combines with the mitotic apparatus): 424-amino acid fragment, expressed in E. coli, the N-terminal end of which has been labeled with histidine, and used as substrate for the two Aurora enzymes.
(§4) The microplates used are 96-well Flash-Plate plates, nickel chelate (Perkin-Elmer, model SMP107).
(§5) The products to be evaluated are incubated in a reaction volume of 100 μL per well, in the presence of 10 nM of Aurora1 or Aurora2, 500 nM of NuMA substrate in a buffer composed of 50 mM Tris/HCl (pH 7.5), 50 mM NaCl, 5 mM MgCl2 (Aurora-B) or 10 mM MgCl2 (Aurora-A) and 1 mM DTT, at 37° C.
(§6) 80 μL of enzyme/substrate incubation buffer are distributed in each well, followed by 10 μL of product to be evaluated, at variable concentrations. The reaction is initiated by adding 1 μM final of ATP containing 0.2 μCi of [^33P]ATP (10 μL). After incubating for 30 minutes, the reaction is quenched by simple removal of the reaction buffer and each well is washed twice with 300 μl of Tris/HCl buffer. The radioactivity is then measured in each well using a Packard, Top-Count model scintillation machine.
(§7) The control enzymatic activity of Aurora is expressed by the number of counts per minute obtained over 30 minutes after subtracting the background noise (reaction mixture containing no enzyme). The evaluation of the various test products is expressed as a percentage of inhibition of the Aurora activity relative to the control.

The next experiment deals with T2, CDK2/cycline E (Homo sapiens, UniProt P24941).
T2 construct: made in house; host or cells: Sf21 insect cells (baculovirus coinfection)
Briefly: CDK2/cyclineE Flashplate test in 96-well format. The conditions noted are these: CDK2/cycline E complex, 1 μM ATP. As for the experimental part: Two recombinant baculoviruses bearing the human sequences coding, respectively, for CDK2 and cyclineE (the latter bearing a C-terminal hexahistidine tag) are used to coinfect Sf21 insect cells. Two to three days after the start of coinfection, the cells are harvested by centrifugation and then stored at −40° C. until the time of use.
A format in streptavidin-coated 96-well plates is used to test the activity of the compounds on the kinase activity of CDK2/cycline E.
To perform this test, the biotinylated peptide substrate, a fragment of the protein pRb (biotinyl-[…]-OH), is dissolved at a concentration of 1 mM in kinase buffer (HEPES/NaOH 50 mM, NaCl 1 mM, MgCl2 5 mM, pH 7.5) in order to constitute a stock solution stored at −20° C. in the form of 110 μL aliquots. On the day of the experiment, an aliquot of this solution is thawed and diluted in kinase buffer containing 1 mM of dithiothreitol, added to the buffer extemporaneously, in order to obtain a concentration of 14.3 μM. 70 μL of this solution are added to each well of the Flashplate in order to obtain a final substrate concentration of 10 μM during the enzymatic reaction performed in a final volume of the reaction medium of 100 μL (cf. below).
Intermediate dilutions of inhibitors (products of the invention) at various concentrations are prepared in DMSO from stock solutions at 10 mM in separate tubes. Dilutions at 1000 μM, 333.3 μM, 111.1 μM, 37.03 μM, 12.35 μM, 4.11 μM and 1.37 μM are thus prepared. One μL of each of these solutions (or 1 μL of DMSO for the controls) is transferred into the wells of the test plate.
19 μl of a solution of a mixture of adenosine triphosphate (ATP) and of ATPγ^33P in kinase buffer at a total concentration of 5.26 μM of ATP and 52.6 μCi/ml of ^33P are then added to each well. The enzymatic reaction is initiated by adding 10 μL per well of a 200 nM solution of CDK2/cycline E in kinase buffer containing 1 mM of dithiothreitol (or 10 μL of kinase buffer containing 1 mM of dithiothreitol for the reaction blanks).
After addition of each of the reagents, the final volume of each well is 100 μL, the final concentration of substrate is 10 μM, the final inhibitor concentrations are 10 μM, 3.33 μM, 1.11 μM, 0.37 μM, 0.123 μM, 0.041 μM and 0.014 μM (according to the concentration of the intermediate dilution), the final ATP concentration is 1 μM, the final amount of ^33P is 1 μCi/well, and the final concentration of CDK2/cycline E complex is 20 nM.
After addition of all of the reagents, the test plate is incubated at 30° C. with orbital shaking at 650 rpm.
When the incubation is complete, the plate is washed three times with 300 μL per well of PBS (phosphate-buffered saline, pH=7.4, without calcium or magnesium, reference 10010-015, Gibco BRL). The incorporation of ^33P to the peptide is quantified by scintillation counting with a Packard Topcount.NXT machine.

Another experiment deals with T3, Aurora1 (Homo sapiens, UniProt Q96GD4).
T3 construct: His tag (N); made in house
Put plainly: Aurora1 enzymatic test, NuMA phosphorylation with [33P]ATP, Flashplate. The conditions noted are these: Aurora-B/INCENP-C3 recombinant complex, 1 μM ATP. As for the experimental part:
as §1, §2
Aurora1: Aurora-B/INCENP-C3 recombinant complex, purified to about 50%, the N-terminal end of Aurora-B of which has been labeled with histidine.
as §3, §4, §5, §6, §7

The target in another experiment is T4, Tie2 (Homo sapiens, UniProt Q02763).
T4 construct: amino acids of the intracellular domain 776-1124; made in house; host or cells: baculovirus expression (pFastBacGT vector)
Briefly: Tie2 kinase test, phosphorylation of PLC with GST-Tie2. Conditions: GST-Tie2 intracellular domain 776-1124. As to the method:
The coding sequence of human Tie2 corresponding to the amino acids of the intracellular domain 776-1124 was generated by PCR using the cDNA isolated from a human placenta as a model. This sequence was introduced into a pFastBacGT baculovirus expression vector in the form of a GST fusion protein.
The inhibitory effect of the molecules is determined in a test of phosphorylation of PLC with Tie2 in the presence of GST-Tie2 purified to about 80% homogeneity. The substrate is composed of the SH2-SH3 fragments of PLC expressed in the form of a GST fusion protein.
The kinase activity of Tie2 is measured in a MOPS 20 mM pH 7.2 buffer, containing 10 mM MgCl2, 10 mM MnCl2, 1 mM DTT, 10 mM of glycerophosphate. In a 96-well FlashPlate plate maintained on ice, a reaction mixture is deposited, composed of 70 μL of kinase buffer containing 100 ng of enzyme GST-Tie2 per well. Next, 10 μL of the test molecule diluted in DMSO to a maximum concentration of 10% are added. For a given concentration, each measurement is performed four times. The reaction is initiated by adding 20 μL of solution containing 2 μg of GST-PLC, 2 μm of cold ATP and 1 μCi of ^33P[ATP]. After incubation for one hour at 37° C., the reaction is stopped by adding 1 volume (100 μl) of 200 mM EDTA. After removal of the incubation buffer, the wells are washed three times with 300 μL of PBS. The radioactivity is measured on a MicroBeta1450 Wallac.
The inhibition of the Tie2 activity is calculated and expressed as a percentage of inhibition relative to the control activity determined in the absence of compound.

T3 sequence (Q96GD4 whole entry, species assumed): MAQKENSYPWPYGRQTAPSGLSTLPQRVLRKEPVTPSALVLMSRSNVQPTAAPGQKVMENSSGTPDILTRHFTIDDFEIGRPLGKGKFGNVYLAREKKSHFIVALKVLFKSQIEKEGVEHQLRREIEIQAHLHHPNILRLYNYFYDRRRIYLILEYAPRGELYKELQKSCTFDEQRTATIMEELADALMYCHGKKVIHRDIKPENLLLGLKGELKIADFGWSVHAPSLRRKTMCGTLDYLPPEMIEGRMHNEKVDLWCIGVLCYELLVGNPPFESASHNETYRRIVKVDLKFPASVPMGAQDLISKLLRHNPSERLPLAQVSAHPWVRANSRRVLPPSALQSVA
T3 sequence (Q9NQS7 835-903 partner limits assumed, species assumed): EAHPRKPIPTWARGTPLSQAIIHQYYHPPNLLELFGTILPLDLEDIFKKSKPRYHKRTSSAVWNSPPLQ
T4 sequence (Q02763 776-1124): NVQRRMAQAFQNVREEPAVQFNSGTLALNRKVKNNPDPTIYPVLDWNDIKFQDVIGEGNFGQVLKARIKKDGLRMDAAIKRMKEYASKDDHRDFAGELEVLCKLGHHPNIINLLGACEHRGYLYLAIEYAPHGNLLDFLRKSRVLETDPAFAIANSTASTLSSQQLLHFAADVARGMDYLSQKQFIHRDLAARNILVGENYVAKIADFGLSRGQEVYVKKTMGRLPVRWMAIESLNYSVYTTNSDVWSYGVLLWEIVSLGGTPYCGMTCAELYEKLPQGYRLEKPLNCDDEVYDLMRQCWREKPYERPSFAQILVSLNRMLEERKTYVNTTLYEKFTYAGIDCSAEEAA

Consider `CN1CCN(Cc2cccc(C(=O)Nc3n[nH]c4sc(C(=O)NN(C)c5ccccc5)cc34)c2)CC1` [Example 16a, N-[5-(N′-methyl-N′-phenylhydrazinocarbonyl)-1H-thieno[2,3-c]pyrazol-3-yl]-3-(4-methylpiperazin-1-ylmethyl)-benzamide], for which the IC50 turned out to be 301 nM on Aurora2, 942 nM on CDK2/cycline E, 992 nM at Aurora1 and 3210 nM on Tie2.
As for `CN1CCN(Cc2cccc(C(=O)Nc3n[nH]c4sc(C(=O)NN(C)c5ccc(Cl)cc5)cc34)c2)CC1` [Example 16b, N-[5-(N′-(4-chlorophenyl)-N′-methylhydrazinocarbonyl)-1H-thieno[2,3-c]pyrazol-3-yl]-3-(4-methylpiperazin-1-ylmethyl)benzamide], the IC50 on Aurora2 was determined as 606 nM; on CDK2/cycline E, 301 nM; on Aurora1, 936 nM; against Tie2, 2010 nM.
Taken in the same sequence, the figures for `CN(NC(=O)c1cc2c(NC(=O)c3ccc(CN4CCCCC4)cc3)n[nH]c2s1)c1ccccc1` [Example 17a, N-[5-(N′-methyl-N′-phenylhydrazinocarbonyl)-1H-thieno[2,3-c]pyrazol-3-yl]-4-piperidin-1-ylmethylbenzamide] were 7 nM, 175 nM, 59 nM and 482 nM.
Turning to `CN(NC(=O)c1cc2c(NC(=O)c3ccc(CN4CCCCC4)cc3)n[nH]c2s1)c1ccc(Cl)cc1` [Example 17b, N-[5-(N′-(4-chlorophenyl)-N′-methylhydrazinocarbonyl)-1H-thieno[2,3-c]-pyrazol-3-yl]-4-piperidin-1-ylmethylbenzamide], the IC50 on Aurora2 came to 35 nM; on CDK2/cycline E it was 93 nM; at Aurora1, 335 nM; at Tie2, 230 nM.
Take `CN(NC(=O)c1cc2c(NC(=O)c3ccc(CN4CCCC4)cc3)n[nH]c2s1)c1ccccc1` [Example 18a, N-[5-(N′-methyl-N′-phenylhydrazinocarbonyl)-1H-thieno[2,3-c]pyrazol-3-yl]-4-pyrrolidin-1-ylmethylbenzamide]: the IC50 at Aurora2 worked out at 14 nM; against CDK2/cycline E, 181 nM; on Aurora1, 122 nM; against Tie2, 624 nM.
Taken in the same sequence, the figures for `CN(NC(=O)c1cc2c(NC(=O)c3ccc(CN4CCCC4)cc3)n[nH]c2s1)c1ccc(Cl)cc1` [Example 18b, N-[5-(N′-(4-chlorophenyl)-N′-methylhydrazinocarbonyl)-1H-thieno[2,3-c]pyrazol-3-yl]-4-pyrrolidin-1-ylmethylbenzamide] were 50 nM, 96 nM, 287 nM and 388 nM.
`CN(NC(=O)c1cc2c(NC(=O)c3ccc(CN4CCC4)cc3)n[nH]c2s1)c1ccccc1` [Example 19, 4-azetidin-1-ylmethyl-N-[5-(N′-methyl-N′-phenylhydrazinocarbonyl)-1H-thieno[2,3-c]pyrazol-3-yl]benzamide]: the IC50 was 26 nM on Aurora2, 239 nM on CDK2/cycline E, 304 nM at Aurora1 and 888 nM against Tie2.
Regarding `CN(C)CCN(C)Cc1ccc(C(=O)Nc2n[nH]c3sc(C(=O)NN(C)c4ccccc4)cc23)cc1` [Example 20a, 4-{[(2-dimethylaminoethyl)methylamino]methyl}-N-[5-(N′-methyl-N′-phenylhydrazinocarbonyl)-1H-thieno[2,3-c]pyrazol-3-yl]benzamide], the IC50 on Aurora2 worked out at 70 nM; at CDK2/cycline E, 347 nM; on Aurora1, 190 nM; at Tie2, 842 nM.
In the case of `CN(C)CCN(C)Cc1ccc(C(=O)Nc2n[nH]c3sc(C(=O)NN(C)c4ccc(Cl)cc4)cc23)cc1` [Example 20b, N-{5-[N′-(4-chlorophenyl)-N′-methylhydrazinocarbonyl]-1H-thieno[2,3-c]pyrazol-3-yl}-4-{[(2-dimethylaminoethyl)methylamino]methyl}benzamide], the IC50 at Aurora2 was 75 nM; against CDK2/cycline E, 109 nM; on Aurora1, 155 nM; against Tie2, 369 nM.
